Laboratory results: patent publication US6713048B2, “Δ9 tetrahydrocannabinol (Δ9 THC) solution metered dose inhalers and methods of use” (Virginia Commonwealth University, priority 1998, dated 2004)
“Also recorded” adds a separate entry of the source. Like-named read-outs stand apart in the source and are kept apart here.

Legend:
[1] = MDI fine particle dose (Andersen Cascade Impactor); type: physicochemical; details: HFA 134a-ethanol MDI; 40° C., 82% relative humidity, 28 days
Procedure: A Δ^9 THC MDI was formulated and the physical properties of the aerosolized drug characterized. The mass of drug metered by the metering valve was determined following a single actuation (metered dose). The mass of drug delivered (emitted dose) was determined. The mass of particles with an aerodynamic diameter less than 4.7 μm was determined.
Appearance, metered dose reproducibility, emitted dose and particle size distribution of the Δ^9 THC MDI were investigated, before and after storage in an environment maintained at 40° C. and 82% relative humidity for a 28 day period. The mass of drug metered by the metering valve (metered dose, n=10) was determined by collecting single actuations directly from the valve in a puff absorber, using the methods of Byron, 1994.
THC was analyzed by LC-UV detection at 280 nm using a 75:25 acetonitrile: 1% acetic acid mobile phase for Δ^9-THC detection. A standard reverse phase C18 column was used.

in vivo = details: for concentration at 20 min: brain
Procedure: Whether inhalation exposure to Δ^9 THC aerosol would elicit pharmacological effects indicative of cannabinoid activity in mice (Compton, D. R., Rice, K. C., De Costa, B. R., Rzdan, R. K., Melvin, L. S., Johnson, M. R., Martin, B. R., Cannabinoid structure-activity relationships: Correlation of receptor binding and in vivo activities, J Pharmacol Exp Ther, 265:218-226 (1993); Little et al., 1988) was determined.
Blood and brain levels of Δ^9-THC were determined as follows. Extraction and LC-MS quantification of Δ^9-THC from whole blood and brain tissue were modified from Lichtman, A. H., Poklis, J. L., Wilson, D. M., Martin, B. R., The pharmacological activity of inhalation exposure to marijuana smoke in mice, Drug Alc Depend, 63:107-116 (2001). Particularly, THC and 2H^3-THC were extracted from brain material which contains a high degree of lipids. Acetonitrile was added to the pelletized solids and stored in a freezer overnight to separate the acetonitrile layer (which contained THC/2H^3-THC) from the aqueous layers. The following day the acetonitrile layer was removed. In the Lichtman et al., study, 2 ml of 9:1 NaOH was added and the sample was vortexed. Four ml of 9:1 hexane:ethyl acetate was added and the sample was vortexed and spun […] for 30 minutes. The vials were then centrifuged at 4,000 rpm […] for 10 minutes. The organic layer was removed and evaporated. Upon drying, a derivatizing agent was added and the sample was vortexed, and each sample analyzed by GC/MS. In the present experimentation, the acetonitrile was instead evaporated to dryness under nitrogen. The material was then resolubilized in 0.1 ml methanol. LC-MS identification was used to quantify Δ^9-THC/2H^3-THC in blood and brain matrices. […] Fifty ng of ^2H3-THC (Radian Corporation, Austin, Tex.) was added to the blood sample, brain homogenate, and calibrators as an internal standard. Following an equilibration period, 2.5 ml of cold acetonitrile (HPLC grade, Fisher Scientific, Raleigh, N.C.) was added drop-wise while vortexing. The samples were then centrifuged (Precision Vari-Hi-Speed Centricone, Precision Scientific Co., Chicago, Ill.) at 2500 rpm for 15 minutes to pelletize solids, then stored in the freezer (−20° C.) overnight, allowing the acetonitrile layer to separate from the aqueous layers. The acetonitrile layer was then removed and evaporated to dryness under nitrogen. The Δ^9-THC/^2H3-THC was then resolubilized in 0.1 ml methanol (HPLC grade, Fisher Scientific).
LC-MS identification was used for quantification of Δ^9-THC and ^2H3-THC in blood and brain matrices using an 85:15 methanol: 1% glacial acetic acid (0.1% formic acid) mobile phase. A guard column was used inline with the standard reverse phase C18 column. The mass spectrometer was run in APCI+mode. Ions analyzed in single ion monitoring mode were 315 for Δ^9-THC and 318 for ^2H3-THC. A calibration curve was constructed for each assay based on linear regression using the peak-area ratios of Δ^9-THC to ^2H3-THC of the extracted calibration samples.

[2] = tested on: Nausea and emesis due to Cancer chemotherapy; details: oral 5 or 15 mg/m^2 THC four times per day; 53 patients refractory to other antiemetics; cited from earlier work
[3] = tested on: Spasticity and pain due to spinal cord injury; details: oral THC (5 mg) or codeine (50 mg); 1 patient; cited from earlier work
airways = details: nebulized micro-aerosol, propylene glycol vehicle; cited from earlier work
asthmatic patients = details: low concentration aerosol; cited from earlier work
[4] = tested on: AIDS-associated anorexia and cachexia; details: oral 2.5 mg THC once or twice daily increasing to 20 mg daily; 94 patients; 12 months; cited from earlier work
[5] = tested on: Nausea and emesis due to Cancer chemotherapy; details: oral THC 15 mg/m^2, cited from earlier work
[6] = tested on: Pain due to advanced cancer; details: oral 5, 10, 15 or 20 mg THC; 10 patients; cited from earlier work
[7] = tested on: Pain due to advanced cancer; details: 10 and 20 mg THC, 60 and 120 codeine; 34 patients; cited from earlier work
[8] = cited from earlier work
[9] = tested on: healthy and asthmatic subjects; details: aerosolized Δ^9-THC from MDI, cited from earlier work
[10] = intravenous, bolus, 5 mg (Ohlsson et al., 1980)
[11] = oral, in cookies, 20 mg (Ohlsson et al., 1980)
[12] = oral, sesame oil in gelatin capsules, 2.5, 5, or 10 mg (PDR, 1995)
[13] = smoking, 13 mg (Ohlsson et al., 1980)

## CCCCCc1cc(O)c2c(c1)OC(C)(C)[C@@H]1CCC(C)=C[C@@H]21 (relative stereo) [Δ^9 THC, (6aR-trans)-6a,7,8,10a-tetrahydro-6,6,9-trimethyl-3-pentyl-6H-dibenzo[b,d]-pyran-1-ol]
[1]
  deterioration/degradation of Δ^9-THC content on storage: no deterioration; also recorded: no significant degradation
In vivo; following inhalation, mice
  brain levels relative to blood levels: roughly equivalent; also recorded: equivalent concentrations
In vivo; i.v. administration, mice
  brain levels higher than those found in blood: approximately two to three
In vivo; mouse, brain relative to whole blood, iv
  Kp at 20 min: 2 to 3
In vivo; mouse, inhaled, 20 actuations
  concentration at 20 min: 340 ± 36 ng/g
In vivo; mouse, inhaled, 40 actuations
  concentration at 20 min: 791 ± 94 ng/g
In vivo; mouse, inhaled, 60 actuations
  concentration at 20 min: 890 ± 151 ng/g
In vivo; mouse, iv, 1 mg/kg
  concentration at 20 min: 307 ± 28 ng/g
In vivo; mouse, iv, 3 mg/kg
  concentration at 20 min: 854 ± 42 ng/g
In vivo; mouse, iv, 10 mg/kg
  concentration at 20 min: 3310 ± 190 ng/g
[2]
  patients with THC-induced partial or complete blockade of vomiting: 72% of patients exhibited a
[3]
  effect on spasticity: THC had a beneficial effect
airways
  bronchial and systemic effects: bronchodilation without systemic effects
Asthmatic patients
  bronchial and systemic effects: bronchodilation without systemic side effects
[4]
  appetite compared to controls: improved appetite and only
  weight compared to controls: tended to increase weight
[5]; 36 patients refractory to prochlorperazine or thiethylperazine
  patients with reduction in chemotherapy-induced nausea and vomiting: 64% of patients given THC
[5]; 36 patients
  side effects: effects included dysphoria;
[6]
  appetite: appetite stimulation,
  mood: elevated mood
  pain: Pain relief
[7]
  analgesic potency compared with codeine: greater potency than
  degree of analgesia compared with codeine: THC produced a similar
[8]; [10]
  % Dose in Plasma: 100%
  Onset of Pharmacological Action: 10 min
  Peak Plasma Levels (time): 3 min
[8]; [11]
  % Dose in Plasma: 4 to 12%
  Onset of Pharmacological Action: 120-180 min
  Peak Plasma Levels (time): 60 to 90 min
[8]; [12]
  % Dose in Plasma: 10 to 20%
  Onset of Pharmacological Action: 0.5 to 1 hour
  Peak Plasma Levels (time): 120 to 480 min
[8]; smoking (THC lost to side stream smoke and pyrolysis), 13 mg (Ohlsson et al., 1980)
  % Dose in Plasma: 8 to 24%
[8]; [13]
  Onset of Pharmacological Action: 10 min
  Peak Plasma Levels (time): 3 min
[9]; healthy patients, at higher doses
  systemic side effects (increased heart rate, subjective reports of being 'high'): substantial systemic side effects
[9]; healthy patients
  bronchial effect in healthy patients: bronchodilation was seen
[9]; some asthmatic patients
  bronchial effect in asthmatic patients: bronchoconstriction occurred
